Measurements as given in US11439709B2, “Phospholipid ether analogs as cancer-targeting drug vehicles” (Cellectar Biosciences, Inc., priority 2014, dated 2022).
One block for each molecule: values may come before it.

How the values were obtained:
[1] = tested on: Capan-2 (Pancreas); assay: cells; assay type: cell-based; settings: cell viability
Protocol: (§1) The cell lines were then measured for cell viability and reported as IC50 for each treatment.

[2] = tested on: HCT116 (Colorectal); assay: cells; assay type: cell-based
Protocol: as §1

[3] = tested on: HT29 (Colorectal); assay: cells; assay type: cell-based
Protocol: as §1

[4] = tested on: MDA-MB-468 (Breast); assay: cells; assay type: cell-based; settings: cell viability
Protocol: as §1

[5] = tested on: MiaPaCa-1 (Pancreas); assay: cells; assay type: cell-based; settings: cell viability
Protocol: as §1

[6] = tested on: NCI-H1299 (Lung); assay: cells; assay type: cell-based; settings: NCI-HI1299 (Lung), cell viability
Protocol: as §1

[7] = tested on: NCI-H460 (Lung); assay: cells; assay type: cell-based; settings: cell viability
Protocol: as §1

[8] = tested on: PC-3 (Prostate); assay: cells; assay type: cell-based; settings: cell viability
Protocol: as §1

[9] = tested on: MDA-MB-468, NCI-H1299, NCI-H460, Capan-2, MiaPaCa-1, HT29, HCT116 and PC-3 cancer cell lines; assay: Cell viability of the cancer cell line panel (result in words); assay type: cell-based; settings: eight cancer cell lines, serial concentrations
Protocol: as §1

[10] = tested on: MDA-MB-468 cells; assay: Annexin V / PI flow cytometry, MDA-MB-468 cells
Protocol: (§2) Annexin V and PI ([…]) staining by flow cytometry was utilized to determine percentages of live, early apoptotic, late apoptotic, and necrotic cells. In short, cells were treated with cytotoxic agents and stained with an Annexin V/P1 labeling kit (Life Technologies). Cells were analyzed on an LSRII flow cytometer (BD Biosciences). As shown in Tables 3-9, cells were classified as: Live (Annexin V negative, PI negative), Early apoptotic (Annexin V positive, PI negative), Late apoptotic (Annexin V positive, PI positive), and Necrotic. (Annexin V negative, PI positive). […] Annexin V (attached to AlexaFluor 488) is shown on the x-axis, while PI is shown on the y-axis. The lower left quadrant indicates live cells, the upper left quadrant indicates necrotic cells, the upper right quadrant indicates late apoptotic cells and the lower right quadrant indicates early apoptotic cells. Debris was eliminated from this analysis.

[11] = tested on: COLO 829 cells; assay: Annexin V / PI flow cytometry, COLO 829 cells; assay type: cell-based
Protocol: as §2

[12] = tested on: PANC-1 cells; assay: Annexin V / PI flow cytometry, PANC-1 cells; assay type: cell-based; settings: GEL for 48 hours
Protocol: as §2

[13] = tested on: 22RV1 cells; assay: Annexin V / PI flow cytometry, 22RV1 cells; assay type: cell-based; settings: GEL for 48 hours
Protocol: as §2

[14] = 1 uM, GEL for 48 hours, Table 4 titled 72 Hours
[15] = 100 nM, GEL for 48 hours, Table 5
[16] = 1 uM, GEL for 48 hours, Table 5
[17] = 100 nM, PTX for 24 hours, Table 3 titled 72 Hours
[18] = 1 uM, PTX for 24 hours, Table 3 titled 72 Hours

SMILES: CC(=O)O[C@H]1C(=O)[C@@]2(C)[C@H]([C@H](OC(=O)c3ccccc3)[C@]3(O)C[C@H](OC(=O)[C@H](OC(=O)CCCC(=O)Nc4ccc(CCCCCCCCCCCCCCCCCCOP(=O)([O-])OCC[N+](C)(C)C)cc4)[C@@H](NC(=O)c4ccccc4)c4ccccc4)C(C)=C1C3(C)C)[C@]1(OC(C)=O)CO[C@@H]1C[C@@H]2O [CLR1601]
IC50 [1]: 56.7 nM
IC50 ([2]; cell viability): 7.6 nM
IC50 ([3]; cell viability): 92.2 nM
IC50 [4]: 3.77 nM
IC50 [5]: 37.3 nM
IC50 [6]: 60.3 nM
IC50 [7]: 29.5 nM
IC50 [8]: 34.4 nM
reduction of cancer cell line viability [9]: capable of reducing cell viability
Early Apoptotic ([10]; 1 uM, 48 hrs (Table 8)): 1.49 % of total cells
Late Apoptotic ([10]; 1 uM, 48 hrs (Table 8)): 6 % of total cells
Live (cell viability) ([10]; 1 uM, 48 hrs (Table 8)): 79.4 % of total cells
Necrotic ([10]; 1 uM, 48 hrs (Table 8)): 13.1 % of total cells
Early Apoptotic ([10]; 1 uM, 72 hrs): 9.8 % of total cells
Late Apoptotic ([10]; 1 uM, 72 hrs): 57.5 % of total cells
Live (cell viability) ([10]; 1 uM, 72 hrs): 17 % of total cells
Necrotic ([10]; 1 uM, 72 hrs): 15.8 % of total cells
Early Apoptotic ([10]; 5 uM, 72 hrs): 2.71 % of total cells
Late Apoptotic ([10]; 5 uM, 72 hrs): 57.9 % of total cells
Live (cell viability) ([10]; 5 uM, 72 hrs): 17.8 % of total cells
Necrotic ([10]; 5 uM, 72 hrs): 21.6 % of total cells

SMILES: CC(=O)O[C@H]1C(=O)[C@]2(C)[C@@H](OC(=O)NCCCC(=O)Nc3ccc(CCCCCCCCCCCCCCCCCCOP(=O)([O-])OCC[N+](C)(C)C)cc3)C[C@H]3OC[C@@]3(OC(C)=O)[C@H]2[C@H](OC(=O)c2ccccc2)[C@]2(O)C[C@H](OC(=O)[C@H](O)[C@@H](NC(=O)c3ccccc3)c3ccccc3)C(C)=C1C2(C)C [CLR1602]
reduction of cancer cell line viability [9]: not capable of significantly reducing cancer cell line viability

SMILES: CC(=O)O[C@H]1C(=O)[C@@]2(C)[C@H]([C@H](OC(=O)c3ccccc3)[C@]3(O)C[C@H](OC(=O)[C@H](OC(=O)OCCCCC(=O)Nc4ccc(CCCCCCCCCCCCCCCCCCOP(=O)([O-])OCC[N+](C)(C)C)cc4)[C@@H](NC(=O)c4ccccc4)c4ccccc4)C(C)=C1C3(C)C)[C@]1(OC(C)=O)CO[C@@H]1C[C@@H]2O [CLR1603]
reduction of cancer cell line viability [9]: capable of reducing cell viability
Early Apoptotic ([10]; 1 uM, 48 hrs (Table 8)): 1.4 % of total cells
Late Apoptotic ([10]; 1 uM, 48 hrs (Table 8)): 4.78 % of total cells
Live (cell viability) ([10]; 1 uM, 48 hrs (Table 8)): 81.4 % of total cells
Necrotic ([10]; 1 uM, 48 hrs (Table 8)): 12.4 % of total cells
Early Apoptotic ([10]; 1 uM, 72 hrs): 6.74 % of total cells
Late Apoptotic ([10]; 1 uM, 72 hrs): 49.1 % of total cells
Live (cell viability) ([10]; 1 uM, 72 hrs): 22.2 % of total cells
Necrotic ([10]; 1 uM, 72 hrs): 22 % of total cells
Early Apoptotic ([10]; 5 uM, 72 hrs): 2.65 % of total cells
Late Apoptotic ([10]; 5 uM, 72 hrs): 55.2 % of total cells
Live (cell viability) ([10]; 5 uM, 72 hrs): 19.7 % of total cells
Necrotic ([10]; 5 uM, 72 hrs): 22.5 % of total cells

SMILES: COC1=C2C[C@@H](C)C[C@H](OC)[C@H](O)[C@@H](C)/C=C(\C)[C@H](OC(N)=O)[C@@H](OC)/C=C\C=C(/C)C(=O)NC(=CC1=O)C2=O [GEL, geldanamycin]
Early Apoptotic [10, 14]: 19.6 % of total cells
Late Apoptotic [10, 14]: 37.9 % of total cells
Live (cell viability) [10, 14]: 26.2 % of total cells
Necrotic [10, 14]: 16.3 % of total cells
Early Apoptotic ([11]; 100 nM, 48 hrs (Table 9)): 12.2 % of total cells
Late Apoptotic ([11]; 100 nM, 48 hrs (Table 9)): 29 % of total cells
Live (cell viability) ([11]; 100 nM, 48 hrs (Table 9)): 36.1 % of total cells
Necrotic ([11]; 100 nM, 48 hrs (Table 9)): 22.7 % of total cells
Early Apoptotic [11, 15]: 21.9 % of total cells
Late Apoptotic [11, 15]: 40.8 % of total cells
Live (cell viability) [11, 15]: 32.4 % of total cells
Necrotic [11, 15]: 4.9 % of total cells
Early Apoptotic ([11]; 1 uM, 48 hrs (Table 9)): 14.4 % of total cells
Late Apoptotic ([11]; 1 uM, 48 hrs (Table 9)): 38.3 % of total cells
Live (cell viability) ([11]; 1 uM, 48 hrs (Table 9)): 24.6 % of total cells
Necrotic ([11]; 1 uM, 48 hrs (Table 9)): 22.7 % of total cells
Early Apoptotic [11, 16]: 21.4 % of total cells
Late Apoptotic [11, 16]: 53.7 % of total cells
Live (cell viability) [11, 16]: 18.6 % of total cells
Necrotic [11, 16]: 6.42 % of total cells
Early Apoptotic ([12]; 100 nM): 4.68 % of total cells
Late Apoptotic ([12]; 100 nM): 12.6 % of total cells
Live (cell viability) ([12]; 100 nM): 23.3 % of total cells
Necrotic ([12]; 100 nM): 59.4 % of total cells
Early Apoptotic ([12]; 1 uM): 1.93 % of total cells
Late Apoptotic ([12]; 1 uM): 12.8 % of total cells
Live (cell viability) ([12]; 1 uM): 18.9 % of total cells
Necrotic ([12]; 1 uM): 66.4 % of total cells
Early Apoptotic ([13]; 100 nM): 5.09 % of total cells
Late Apoptotic ([13]; 100 nM): 28.4 % of total cells
Live (cell viability) ([13]; 100 nM): 19.4 % of total cells
Necrotic ([13]; 100 nM): 47.1 % of total cells
Early Apoptotic ([13]; 1 uM): 6.22 % of total cells
Late Apoptotic ([13]; 1 uM): 19.1 % of total cells
Live (cell viability) ([13]; 1 uM): 28.1 % of total cells
Necrotic ([13]; 1 uM): 46.6 % of total cells

IC50 ([2]; Homo sapiens, HCT-116, cell viability): 0.87 nM
IC50 ([3]; Homo sapiens, HT-29, cell viability): 1.07 nM
IC50 ([4]; Homo sapiens): 1.9 nM
IC50 [5]: 1.32 nM
IC50 ([6]; Homo sapiens, NCI-H1299): 1.82 nM
IC50 ([7]; Homo sapiens): 1.66 nM
IC50 [8]: 0.9 nM
SMILES: CC(=O)O[C@H]1C(=O)[C@@]2(C)[C@H]([C@H](OC(=O)c3ccccc3)[C@]3(O)C[C@H](OC(=O)[C@H](O)[C@@H](NC(=O)c4ccccc4)c4ccccc4)C(C)=C1C3(C)C)[C@]1(OC(C)=O)CO[C@@H]1C[C@@H]2O [Paclitaxel, paclitaxel]
IC50 ([1]; Homo sapiens): 7.91 nM
Early Apoptotic ([10]; 100 nM, 48 hrs (Table 8)): 2.47 % of total cells
Late Apoptotic ([10]; 100 nM, 48 hrs (Table 8)): 5.54 % of total cells
Live (cell viability) ([10]; 100 nM, 48 hrs (Table 8)): 77.9 % of total cells
Necrotic ([10]; 100 nM, 48 hrs (Table 8)): 14.1 % of total cells
Early Apoptotic [10, 17]: 5.9 % of total cells
Late Apoptotic [10, 17]: 31.4 % of total cells
Live (cell viability) [10, 17]: 53.8 % of total cells
Necrotic [10, 17]: 8.89 % of total cells
Early Apoptotic ([10]; 1 uM, 48 hrs (Table 8)): 1.97 % of total cells
Late Apoptotic ([10]; 1 uM, 48 hrs (Table 8)): 9.18 % of total cells
Live (cell viability) ([10]; 1 uM, 48 hrs (Table 8)): 73.3 % of total cells
Necrotic ([10]; 1 uM, 48 hrs (Table 8)): 15.6 % of total cells
Early Apoptotic [10, 18]: 5.5 % of total cells
Late Apoptotic [10, 18]: 34.8 % of total cells
Live (cell viability) [10, 18]: 48.9 % of total cells
Necrotic [10, 18]: 10.8 % of total cells
